The numbers were not newly measured in patent US9861605B2, “Enriched injectable emulsion containing selected fatty acid triglycerides” (STABLE SOLUTIONS LLC, priority 2011, dated 2018), which cites them from elsewhere.

The conditions of this series: against water.

Each structure is given as a SMILES string.

As for `CCCCCCCC(=O)O` [caprylic acid], the interfacial tension result is on record as “approximately 8.2 dyne/cm”.
For the compound `CCCCCCCC/C=C\CCCCCCCC(=O)O` [oleic acid], the interfacial tension is 15.6 dyne/cm.
